Assay results from patent US20250382306A1, “HETEROCYCLIC COMPOUND AS TAAR1 LIGAND AGONIST” (SHANDONG LUYE PHARMACEUTICAL CO., LTD., priority 2022, published 2025).
Where two headings read alike, the source gives them in different places.

Columns and labels:
TAAR1 = target: T1, TAAR1 (Homo sapiens, UniProt Q96RJ0); experiment: In vitro TAAR1 functional activity (cAMP Hunter CHO-K1 TAAR1 Gs cell line, HitHunter cAMP assay); type: cell-based; conditions: chemiluminescence cAMP readout
T1 construct: expressed in transfected cells; host or cells: CHO-K1 (cAMP Hunter TAAR1 Gs cell line)
T1 sequence (Q96RJ0 1-339): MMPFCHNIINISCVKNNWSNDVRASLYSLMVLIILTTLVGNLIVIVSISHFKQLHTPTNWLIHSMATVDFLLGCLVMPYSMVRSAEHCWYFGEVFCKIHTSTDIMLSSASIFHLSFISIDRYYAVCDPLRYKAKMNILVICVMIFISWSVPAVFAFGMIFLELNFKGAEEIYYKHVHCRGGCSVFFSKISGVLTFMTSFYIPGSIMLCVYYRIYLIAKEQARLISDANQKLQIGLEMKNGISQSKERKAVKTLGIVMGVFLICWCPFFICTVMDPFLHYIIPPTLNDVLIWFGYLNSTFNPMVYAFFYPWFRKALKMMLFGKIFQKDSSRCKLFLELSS
Procedure: Test Example 1. In Vitro Evaluation of Intrasynaptic and Extrasynaptic Functional Activities in Cells
Cell: CAMP Hunter™ CHO-K1 TAAR1 Gs Cell Line
Assay Reagent: HitHunter cAMP Assay Detection Kit
Experimental Instrument: PerkinElmer Envision™ Chemiluminescence Signal Detector
Experimental method: cell treatment: The cAMP Hunter cell strain was cultured at 37° C. with 5% CO2 to 70-80% confluence. The cells were harvested, and the cell density was adjusted to 1.5×10^4 cells/mL. The cells were seeded in a white-wall 384-well microwell plate at a volume of 20 μL, and incubated at 37° C. with 5% CO2 overnight. The cell medium was discarded, and 15 μL of 2:1 HBSS/10 mM Hepes:cAMP XS+Ab reagent was added to each well. The mother solution of the sample was diluted with an assay buffer in a concentration gradient to a 4× sample, and 5 μL of the 4× sample was added to each well. The plate was incubated at 37° C. or room temperature for 30 or 60 min. […] 20 μL of cAMP XS+EA reagent was added to each well, and the plate was incubated at room temperature for 3 h. The chemiluminescence signal was read using a PerkinElmer Envision™ detector.
Data analysis: EC50 was calculated using CBIS data analysis software (ChemInnovation, CA). The activity percentage was calculated using the following formula: % activity=100%×(test sample average RLU−solvent control average RLU)/(maximum control average RLU−solvent control average RLU).

[1] = Pharmacokinetic study in rats; type: in vivo, SD rats; conditions: for Cmax: read-out: Cmax or C0
Procedure: Test Example 2. Pharmacokinetic Study in Rats
Rat: SD Rats Weighing 200-250 g
(§1) Reagent: acetonitrile, MERCK; methanol, MERCK; formic acid, Sigma; tolbutamide, Sigma.
Instrument: water purification equipment, Millipore; electronic balance, METTLER TOLEDO; high-speed benchtop centrifuge, Thermno; water bath thermostatic oscillator, Shanghai Yiheng Technical Co., Ltd.; vortex oscillator, Thermno; liquid chromatography-mass spectrometry, AB SCIEX.
Method: The SD rats were dosed intravenously (IV) and intragastrically (IG), 3 SD rats in each group. Compounds 1-b, 2-a and L27 were separately administered, and the vehicles were DMSO and Tween 80. […] Whole blood samples were separately collected at 0, 5 m (intravenous), 15 m, 30 mi, 1 h, 2 h, 4 h, 6 h, 8 h, 12 h, and 24 h. The whole blood was placed in a heparinized EP tube and centrifuged at 13,500 rpm for 10 min to separate the plasma. After pretreatment, the plasma was analyzed by LC-MS/MS to determine the concentration of the test compound in the plasma.

[2] = tested on: MK801-induced overactivity; experiment: Pharmacodynamic study in mice, MK-801 overactivity model (Test Example 4); type: in vivo; conditions: C57 mice; for total movement distance after modeling: MK-801 0.8 mg/kg i.p., 30-60 min after administration, p<0.05 vs model group 63052.14±21618.80 mm
Procedure: Test Example 4. Pharmacodynamic Study in Mice
Mouse: C57 mice weighing 20-22 g
Instrument: electronic balance, METTLER TOLEDO; TopScan monitoring system.
(§2) 4.1. model preparation: MK-801 induces overactivity in mice and is commonly used for preclinical evaluation of antipsychotics. The modeling method in this test was: The mice were injected with MK-801 intraperitoneally in at single dose of 0.8 mg/kg.
4.2. Experimental grouping: The mice were randomly divided into model group, 1-b group, and L27 group, 10 animals in each group, as shown in Table 5.
(§3) The mice were randomly divided into groups. At the start of the test, the test samples were administered intragastrically at an single dose according to the doses shown in Table 5, and the mice were placed in an activity chamber. After 30 min, each mouse was injected intraperitoneally with 0.8 mg/kg of MK-801 for modeling, and placed in the activity chamber again. The movement distance (mm) of the mice after modeling (i.e., within 30-60 min after administration) was recorded and analyzed using a TopScan monitoring system.
(§4) […] The total movement distance of the mice after modeling (30-60 min after administration) was recorded.
(§5) Data analysis and processing were carried out using Graphpad 5.0 software. ANOVA test was used to compare the total movement distance between each administration group and model group within 30-60 min.

[3] = tested on: MK801-induced overactivity; experiment: Pharmacodynamic study in mice, MK-801 overactivity model (Test Example 5); type: in vivo, C57 mice; conditions: 3 mg/kg intragastric; for total movement distance after modeling: MK-801 0.8 mg/kg i.p., 30-60 min after administration, p<0.05 vs model group 101535.71±26076.11 mm
Procedure: as §2, §3, §4, §5
Test Example 5. Pharmacodynamic Study in Mice
5.1. Experimental grouping: The mice were randomly divided into model group, 1-b group, and 2-a group, 5 animals in each group, as shown in Table 6. The model preparation, test method, observation of indexes and statistical method were the same as those in Test Example 4.

[4] = Pharmacokinetic study in dogs; conditions: dog, in vivo, po; Beagle dogs, plasma, after intragastric L15 hydrochloride 2 mg/kg (as free base); label = analyte
Procedure: Test Example 3. Pharmacokinetic Study in Dogs
Dog: Beagle dogs weighing 11-13 kg
as §1
Instrument: water purification equipment, Millipore; electronic balance, METTLER TOLEDO; high-speed benchtop centrifuge, Thermo; water bath thermostatic oscillator, Shanghai Yiheng Technical Co., Ltd.; vortex oscillator, Thermo; liquid chromatography-mass spectrometry, AB SCIEX.
Method: L15 hydrochloride was administered intragastrically at a dose of 2 mg/kg (calculated based on free base), 2 Beagle dogs in each group. The vehicles were DMSO and Tween 80. Whole blood samples were separately collected at 0, 5 min, 15 min, 30 min, 1 h, 2 h, 3 h, 4 h, 6 h, 8 h, 12 h, and 24 h. The whole blood was placed in a heparinized EP tube and centrifuged at 13,500 rpm for 10 min to separate the plasma. After pretreatment, the plasma was analyzed by LC-MS/MS to determine the concentration of the test compound in the plasma.

[5] = cAMP Hunter CHO-K1 TAAR1 Gs cell line, read-out: EC50
[6] = EC50, cAMP Hunter CHO-K1 TAAR1 Gs cell line
[7] = SD rats, 1-b IV 2 mg/kg, analyte 1-b
[8] = Sprague-Dawley, rat, in vivo, po, SD rats, plasma, 1-b IG 5 mg/kg, analyte 1-b
[9] = Sprague-Dawley, rat, in vivo, SD rats, plasma, 1-b IV 2 mg/kg, analyte 1-b

CNCC1OC(COC)Cc2ccsc21 (centres unmarked) [Compound 30]
EC50 (TAAR1; [5]): > 10 µM

CNCC1c2sccc2CCN1C (centres unmarked) [Compound 61]
EC50 (TAAR1; [5]): > 10 µM

CC(C)Oc1ccsc1C1CNCCO1 (centres unmarked) [Compound 15]
EC50 (TAAR1; [6]): > 10 µM

c1cc2c(s1)[C@H]1CNCCN1CC2 [Compound 1-a]
EC50 (TAAR1; [5]): 9.12 µM

Fc1ccc(C2CNCCO2)s1 (centres unmarked) [Compound 9]
EC50 (TAAR1; [5]): 0.734 µM

c1cc2c(s1)[C@@H]1CNCCN1CC2 [Compound 1-b]
F ([1]; SD rats, 1-b IG 5 mg/kg vs IV 2 mg/kg): 66.6 ± 8.12% | Cl_obs [1, 7]: 28.8 ± 3.25 mL/min/kg | Vss_obs [1, 7]: 2.91 ± 0.68 L/kg | AUC(0-t) [1, 8]: 9.95 ± 1.21 µM·h | MRT last [1, 8]: 2.33 ± 0.465 h | Tmax [1, 8]: 0.417 ± 0.144 h | half-life [1, 8]: 1.85 ± 0.217 h | Cmax [1, 8]: 3.73 ± 0.846 µM | AUC(0-t) [1, 9]: 5.97 ± 0.642 µM·h | MRT last [1, 9]: 1.6 ± 0.203 h | half-life [1, 9]: 1.76 ± 0.344 h | Cmax [1, 9]: 7.54 ± 2.28 µM | effect on MK801-induced overactivity (conclusion) ([2]; 10 mg/kg intragastric): good inhibition effect | total movement distance after modeling ([2]; 1-b 10 mg/kg intragastric): 6493.12±6228.87 mm | EC50 (TAAR1; [5]): 0.062 µM | effect on MK801-induced overactivity (conclusion) [3]: good inhibition effect | total movement distance after modeling [3]: 13644.54±10814.85 mm | AUC(0-t) [4]: 0.0547 µM·h | Cmax [4]: 0.0223 µM | MRT last [4]: 1.68 h | Tmax [4]: 1.5 h

CNCC1OCC(c2ccccc2)c2ccsc21 (single isomer, unassigned) [Compound 32-c]
EC50 (TAAR1; [5]): > 10 µM

NCC1SCCc2ccsc21 (single isomer, unassigned) [Compound 43-b]
EC50 (TAAR1; [5]): 0.031 µM

c1cc(C2CC2)c(C2CNCCO2)s1 (centres unmarked) [Compound 59]
EC50 (TAAR1; [5]): 2.91 µM

CNCC1OCC(c2ccccc2)c2ccsc21 (single isomer, unassigned) [Compound 32-b]
EC50 (TAAR1; [5]): > 10 µM

CN1CCc2ccsc2C1CN (single isomer, unassigned) [Compound 42-b]
EC50 (TAAR1; [5]): 0.244 µM

CNCC1OC(C)Cc2ccsc21 (single isomer, unassigned) [Compound 28-a]
EC50 (TAAR1; [5]): > 10 µM

NCC1SCCc2ccsc21 (single isomer, unassigned) [Compound 43-a]
EC50 (TAAR1; [5]): > 10 µM

CNC[C@H]1SCCc2ccsc21 [Compound 40-b]
EC50 (TAAR1; [5]): 0.522 µM

CNCC1OCC(C)(C)c2ccsc21 (centres unmarked) [Compound 35]
EC50 (TAAR1; [5]): > 10 µM

COc1ccc([C@@H]2CNCCO2)s1 [Compound 12-a]
EC50 (TAAR1; [6]): > 10 µM

CNCC1OC(C)Cc2ccsc21 (single isomer, unassigned) [Compound 28-b]
EC50 (TAAR1; [5]): 1.84 µM

CN1CCc2ccsc2C1CN (single isomer, unassigned) [Compound 42-a]
EC50 (TAAR1; [5]): > 10 µM

COc1ccsc1C1CNCCO1 (single isomer, unassigned) [Compound 10-a]
EC50 (TAAR1; [5]): 0.028 µM

NC[C@@H]1NCCc2ccsc21 [Compound 41-a]
EC50 (TAAR1; [5]): 9.1 µM

COc1ccc([C@H]2CNCCO2)s1 [Compound 12-b]
EC50 (TAAR1; [6]): 1.59 µM

CN1CCN2CCc3ccsc3[C@H]2C1 [Compound 2-b]
EC50 (TAAR1; [5]): > 10 µM

COc1ccsc1C1CNCCO1 (single isomer, unassigned) [Compound 10-b]
EC50 (TAAR1; [5]): 0.386 µM

OC[C@H]1OCCc2ccsc21 [Compound 39-a]
EC50 (TAAR1; [5]): > 10 µM

CNC[C@@H]1NCCc2ccsc21 [Compound 38-a]
EC50 (TAAR1; [5]): > 10 µM

CNCC1OCC(c2ccccc2)c2ccsc21 (single isomer, unassigned) [Compound 32-a]
EC50 (TAAR1; [5]): > 10 µM

COc1csc([C@H]2CNCCO2)c1 [Compound 11-b]
EC50 (TAAR1; [6]): 2.16 µM

CNCC1OCC(c2ccccc2)c2ccsc21 (single isomer, unassigned) [Compound 32-d]
EC50 (TAAR1; [5]): > 10 µM

CNC[C@@H]1SCCc2ccsc21 [Compound 40-a]
EC50 (TAAR1; [5]): > 10 µM

CNC[C@H]1NCCc2ccsc21 [Compound 38-b]
EC50 (TAAR1; [5]): 7.96 µM

CC(OC(=O)C(C)C)OC(=O)N1CCN2CCc3ccsc3[C@@H]2C1 (some centres unmarked) [Compound L27]
Detection of L27 in plasma ([1]; SD rats, after intragastric L27 9 mg/kg): L27 was not detected | total movement distance after modeling ([2]; L27 hydrochloride 16 mg/kg intragastric): 8100.56±7787.37 mm

CNCC1OC(C)(C)Cc2ccsc21 (centres unmarked) [Compound 34]
EC50 (TAAR1; [5]): 1.25 µM

FCCOc1ccsc1C1CNCCO1 (centres unmarked) [Compound 60]
EC50 (TAAR1; [6]): 9.8 µM

CNCC1OCCc2ccoc21 (centres unmarked) [Compound 37]
EC50 (TAAR1; [5]): 1.23 µM

OC[C@@H]1OCCc2ccsc21 [Compound 39-b]
EC50 (TAAR1; [5]): > 10 µM

NC[C@H]1NCCc2ccsc21 [Compound 41-b]
EC50 (TAAR1; [5]): 0.424 µM

Fc1csc(C2CNCCO2)c1 (centres unmarked) [Compound 8]
EC50 (TAAR1; [6]): 0.295 µM

COc1csc([C@@H]2CNCCO2)c1 [Compound 11-a]
EC50 (TAAR1; [6]): > 10 µM

FC(F)(F)COc1ccsc1C1CNCCO1 (centres unmarked) [Compound 20]
EC50 (TAAR1; [5]): 4.72 µM

CN1CCN2CCc3ccsc3[C@@H]2C1 [Compound 2-a]
Exposure and bioavailability (conclusion) ([1]; rat, in vivo): relatively high exposure and bioavailability | EC50 (TAAR1; [5]): 4.4 µM | effect on MK801-induced overactivity (conclusion) [3]: good inhibition effect | total movement distance after modeling [3]: 9161.61±4711.10 mm

FC(F)COc1ccsc1C1CNCCO1 (centres unmarked) [Compound 19]
EC50 (TAAR1; [6]): > 10 µM
